# According to patent US20100173972A1, “METHODS AND USES RELATED TO RHBDL4” (MEDICAL RESEARCH COUNCIL, priority 2007, published 2010):
# Where a SMILES comes first, the peptide text is derived from it. The star is where a group is joined. Decanoyl = CCCCCCCCCC(=O)*; Cbz = O=C(OCc1ccccc1)*; CH2Cl = ClC*
# T1: mouse RHBDL4 (Mus musculus, UniProt Q8BHC7)
# T1 sequence (Q8BHC7 1-315): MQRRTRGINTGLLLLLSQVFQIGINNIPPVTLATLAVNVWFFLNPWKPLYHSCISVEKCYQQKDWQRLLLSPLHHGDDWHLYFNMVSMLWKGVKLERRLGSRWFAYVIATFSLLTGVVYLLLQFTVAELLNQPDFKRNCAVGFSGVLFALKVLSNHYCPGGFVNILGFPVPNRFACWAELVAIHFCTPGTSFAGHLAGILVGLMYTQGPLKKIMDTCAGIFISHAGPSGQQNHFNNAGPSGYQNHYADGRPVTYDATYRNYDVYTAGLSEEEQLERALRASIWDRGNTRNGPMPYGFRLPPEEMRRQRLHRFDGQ
# T2: in vitro translated substrate comprising the transmembrane domain of Drosophila Gurken, P42287
# T2 chain: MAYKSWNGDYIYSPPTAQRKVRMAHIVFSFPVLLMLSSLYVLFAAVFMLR
# T3: Drosophila Spitz, Q01083
# T3 chain: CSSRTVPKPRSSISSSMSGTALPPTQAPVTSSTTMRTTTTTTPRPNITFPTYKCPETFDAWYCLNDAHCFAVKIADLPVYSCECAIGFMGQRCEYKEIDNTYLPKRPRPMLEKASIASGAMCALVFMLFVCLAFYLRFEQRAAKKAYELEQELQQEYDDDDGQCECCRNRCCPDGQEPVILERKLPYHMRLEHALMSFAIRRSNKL
# B1: recombinant human RHBDL2 from E. coli (protein)
# chain: MAAVHDLEMESMNLNMGREMKEELEEEEKMREDGGGKDRAKSKKVHRIVSKWMLPEKSRGTYLERANCFPPPVFIISISLAELAVFIYYAVWKPQKQWITLDTGILESPFIYSPEKREEAWRFISYMLVHAGVQHILGNLCMQLVLGIPLEMVHKGLRVGLVYLAGVIAGSLASSIFDPLRYLVGASGGVYALMGGYFMNVLVNFQEMIPAFGIFRLLIIILIIVLDMGFALYRRFFVPEDGSPVSFAAHIAGGFAGMSIGYTVFSCFDKALLKDPRFWIAIAAYLACVLFAVFFNIFLSPAN
# B2: mouse RHBDL4 with an N-terminal HA3-tag (protein)
# chain: T1 sequence (Q8BHC7 1-315)
# B3: recombinant mouse RHBDL4, C-terminally His6-tagged, from E. coli (protein)
# chain: T1 sequence (Q8BHC7 1-315)
# B4: recombinant mouse RHBDL1 from E. coli (protein)
# chain: MDRSSLLQLIQEQQLDPENTGFIGADTFAGLVHSHELPLDPTKLDMLVALAQSNERGQVCYQELVDLISSKRSSSFKRAIANGQRALPRDGLLDEPGLSVYKRFVRYVAYEILPCEVDRRWYFYRHRTCPPPVFMASVTLAQIIVFLCYGARLNKWVLQTYHPEYMKSPLVYHPGHRARAWRFLTYMFMHVGLEQLGFNALLQLMIGVPLEMVHGVLRISLLYLAGVLAGSLTVSITDMRAPVVGGSGGVYALCSAHLANVVMNWAGMRCPYKLLRMVLALVCMSSEVGRAVWLRFSPPLPASGPQPSFMAHLAGAVVGVSMGLTILRSYEERLRDQCGWWVVLLAYGTFLLFAIFWNVFAYDLLGADIPPPP
# B5: mouse RHBDL1 with an N-terminal HA3-tag (protein)
# chain: B4 chain
# Tests used:
# [1] = test system: pro-TGFalpha shedding; assay: BB94 sensitivity of endogenous pro-TGFalpha shedding and trimming (cell-based cleavage assay)
# Procedure: (§1) Cell culture and cell-based rhomboid cleavage assay. Cells were propagated in DMEM supplemented with 10% fetal calf serum. COS-7 cells were transfected in 35 mm wells with FuGENE 6 (Roche) as described (7). In brief, 250 ng plasmid encoding the substrate (as indicated in the description of the figures), 25 ng for the rhomboid tested, 50 ng for the GRP receptor and empty plasmid to bring the total DNA to 1 μg was used. For protease titration, 2.5 ng to 250 ng plasmid coding RHBDL4 was used. HeLa and HEK293T were transfected with polyethyleneimine (linear, MW 25000; Polysciences) as described (32) using twice the amount of DNA as used with FuGENE. Transfection efficiency was monitored by co-transfection of pEGFP (Invitrogen). Sixteen hours post transfection, medium was replaced with serum-free medium containing 10 μM BB94 (British Biotech) unless otherwise stated. For activation of endogenous rhomboid activity, phorbol 12-myristate 13-acetate (PMA) (1 μM, from Sigma) or bombesin (100 nM, from Sigma) was added to the cell medium. […] Cells were solubilized in SDS-sample buffer and analyzed by SDS-PAGE. […] The precipitate was recovered by centrifugation, washed with acetone and dissolved in SDS-PAGE sample buffer and analyzed by SDS-PAGE. […] Subsequently beads were washed with 20 mM Tris-Cl pH 8.0, 50 mM imidazole, eluted with SDS-sample buffer and analyzed by SDS-PAGE and Western blotting (see below). […]
# Western blotting. Proteins were analyzed by 4-20% Tris-Glycine gradient gels (Invitrogen) followed by Western blot analysis using either anti FLAG M2-HRP (1:1000; Sigma), anti HA antibody 16B12 (1:1000; Covance), anti actin antibody ab8227 (1:5000; Abcam) or affinity purified polyclonal rabbit antibody anti RHBDL4 (1:4000; see above). […] Protein was detected with anti phospho-EGFR antibody 9H2 (1:2000, Upstate). […] Bound antibodies were detected by incubation with secondary antibody (Santa Cruz Biotechnology) followed by enhanced chemiluminescence (Amersham Biosciences).
# [2] = test system: TGFalpha release, HEK293T cells; assay: Time course after PMA induction of HEK293T cells overexpressing pro-TGFalpha, with protease inhibitors; assay type: cell-based, human
# Procedure: Cell culture and cell-based rhomboid cleavage assay. Cells were propagated in DMEM supplemented with 10% fetal calf serum. COS-7 cells were transfected in 35 mm wells with FuGENE 6 (Roche) as described (7). In brief, 250 ng plasmid encoding the substrate (as indicated in the description of the figures), 25 ng for the rhomboid tested, 50 ng for the GRP receptor and empty plasmid to bring the total DNA to 1 μg was used. For protease titration, 2.5 ng to 250 ng plasmid coding RHBDL4 was used. HeLa and HEK293T were transfected with polyethyleneimine (linear, MW 25000; Polysciences) as described (32) using twice the amount of DNA as used with FuGENE. Transfection efficiency was monitored by co-transfection of pEGFP (Invitrogen). Sixteen hours post transfection, medium was replaced with serum-free medium containing 10 μM BB94 (British Biotech) unless otherwise stated. For activation of endogenous rhomboid activity, phorbol 12-myristate 13-acetate (PMA) (1 μM, from Sigma) or bombesin (100 nM, from Sigma) was added to the cell medium. For inhibitor studies, the indicated protease inhibitors (from Calbiochem), diluted from a stock solution in DMSO, were compared with a carrier only. Medium was harvested typically after 24 to 30 hours; for inhibitor studies using 3,4-Dichloroisocoumarin (DCI) a time course with 0 minutes, 30 minutes and 4 hours was performed (FIG. 4C). Cells were solubilized in SDS-sample buffer and analyzed by SDS-PAGE. EndoH (New England Biolabs) and PNGaseF (New England Biolabs) treatment of SDS-solubilized cell extracts was performed according to the manufacturers instructions. Conditioned media were centrifuged for 10 minutes at full speed in a microfuge to remove cell debris, and subsequently proteins in the supernatant were precipitated by adding trichloroacetic acid (TCA) to 10%. The precipitate was recovered by centrifugation, washed with acetone and dissolved in SDS-PAGE sample buffer and analyzed by SDS-PAGE. Alternatively to TCA precipitation, TGFalpha-H8 in conditioned medium was captured by metal-chelate chromatography using Ni-NTA agarose beads (Qiagen) in the presence of 20 mM imidazole at pH 8.0. Subsequently beads were washed with 20 mM Tris-Cl pH 8.0, 50 mM imidazole, eluted with SDS-sample buffer and analyzed by SDS-PAGE and Western blotting (see below). Typically, from a 35 mm tissue culture dish, 10% of cell extracts and 20% of tissue culture supernatant were loaded. To increase the sensitivity, for experiments shown in FIGS. 1C, 3E, 4A and 4C, five times the amount of the media fractions were loaded.
# Western blotting. Proteins were analyzed by 4-20% Tris-Glycine gradient gels (Invitrogen) followed by Western blot analysis using either anti FLAG M2-HRP (1:1000; Sigma), anti HA antibody 16B12 (1:1000; Covance), anti actin antibody ab8227 (1:5000; Abcam) or affinity purified polyclonal rabbit antibody anti RHBDL4 (1:4000; see above). In order to detect the 6 kDa form of TGFalpha, proteins were transferred on PVDF membrane with 0.2 μm pore size (Millipore) and probed with 1:100 anti TGFalpha antibody 134A-2B3 (Oncogene). For the detection of phosphorylated EGFR, PVDF membranes were blocked in 3% BSA in TBS-Tween supplemented with 200 μM NaVO3. Protein was detected with anti phospho-EGFR antibody 9H2 (1:2000, Upstate). […] Bound antibodies were detected by incubation with secondary antibody (Santa Cruz Biotechnology) followed by enhanced chemiluminescence (Amersham Biosciences).
# [3] = test system: HB-EGF shedding, COS-7 cells; assay: HB-EGF secretion in COS-7 cells overexpressing the bombesin receptor; assay type: cell-based, green monkey
# Procedure: Cells were propagated in DMEM supplemented with 10% fetal calf serum. COS-7 cells were transfected in 35 mm wells with FuGENE 6 (Roche) as described (7). In brief, 250 ng plasmid encoding the substrate (as indicated in the description of the figures), 25 ng for the rhomboid tested, 50 ng for the GRP receptor and empty plasmid to bring the total DNA to 1 μg was used. […] Transfection efficiency was monitored by co-transfection of pEGFP (Invitrogen). Sixteen hours post transfection, medium was replaced with serum-free medium containing 10 μM BB94 (British Biotech) unless otherwise stated. For activation of endogenous rhomboid activity, phorbol 12-myristate 13-acetate (PMA) (1 μM, from Sigma) or bombesin (100 nM, from Sigma) was added to the cell medium. For inhibitor studies, the indicated protease inhibitors (from Calbiochem), diluted from a stock solution in DMSO, were compared with a carrier only. […] Cells were solubilized in SDS-sample buffer and analyzed by SDS-PAGE. […] Conditioned media were centrifuged for 10 minutes at full speed in a microfuge to remove cell debris, and subsequently proteins in the supernatant were precipitated by adding trichloroacetic acid (TCA) to 10%. The precipitate was recovered by centrifugation, washed with acetone and dissolved in SDS-PAGE sample buffer and analyzed by SDS-PAGE. […]
# [4] = biological target: T1, mouse RHBDL4; assay: Cell-based rhomboid cleavage assay: pro-TGFalpha cleavage by overexpressed RHBDL4; design: expressed in transfected cells; host or cells: COS-7 (also HeLa and HEK293T), pcDNA3.1
# Procedure: as §1, with “(Invitrogen).” for “(Invitrogen). Sixteen hours post transfection, medium was replaced with serum-free medium containing 10 μM BB94 (British Biotech) unless otherwise stated. For activation of endogenous rhomboid activity, phorbol 12-myristate 13-acetate (PMA) (1 μM, from Sigma) or bombesin (100 nM, from Sigma) was added to the cell medium.”
# (§2) Western blotting. […] Protein was detected with anti phospho-EGFR antibody 9H2 (1:2000, Upstate). […] Bound antibodies were detected by incubation with secondary antibody (Santa Cruz Biotechnology) followed by enhanced chemiluminescence (Amersham Biosciences).
# [5] = test system: proteasome; assay: Proteasome inhibitor treatment of cells expressing pro-TGFalpha; assay type: cell-based
# Procedure: as §1
# [6] = test system: protein kinase C (PKC); assay: PMA-induced TGFalpha shedding (transactivation); assay type: cell-based; conditions: PMA 1 μM
# Procedure: as §1, with “(Invitrogen).” for “(Invitrogen). Sixteen hours post transfection, medium was replaced with serum-free medium containing 10 μM BB94 (British Biotech) unless otherwise stated. For activation of endogenous rhomboid activity, phorbol 12-myristate 13-acetate (PMA) (1 μM, from Sigma) or bombesin (100 nM, from Sigma) was added to the cell medium.”
# as §2
# [7] = biological target: T2, in vitro translated substrate …
# [8] = biological target: T3, Drosophila Spitz, Q01083
# [9] = biological target: human pro-TGFalpha, P01135
# Sequence of human pro-TGFalpha, P01135 (P01135 whole entry, looked up): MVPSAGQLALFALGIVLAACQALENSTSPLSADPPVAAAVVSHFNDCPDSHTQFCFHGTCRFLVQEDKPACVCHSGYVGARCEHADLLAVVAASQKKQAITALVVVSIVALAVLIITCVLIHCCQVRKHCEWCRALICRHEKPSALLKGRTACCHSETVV
# [10] = BB94 20 μM, FLAG6-tagged pro-TGFalpha
molecule,measurement,setting,value
CNC(=O)[C@H](Cc1ccccc1)NC(=O)[C@H](CC(C)C)[C@H](CSc1cccs1)C(=O)NO [BB94],Generation of the higher MW forms of TGFalpha by endogenous shedding: sensitivity to inhibitor,[1]; [10],insensitive
same,Trimming to smaller intermediates and species lacking the pro-peptide,[1]; [10],blocked
same,Processing of the 37 kDa form to the 6 kDa secreted bioactive ligand: sensitivity to inhibitor,[1]; bombesin-treated COS-7 cells overexpressing the bombesin receptor,sensitive
same,Release of the 6 kDa form of TGFalpha,"[2]; BB94 20 μM, PMA induction, HEK293T",inhibited
same,Bombesin-enhanced HB-EGF release: sensitivity to inhibitor,"[3]; BB94 20 μM, bombesin treatment",insensitivity
same,HB-EGF shedding by ADAM proteases in unstimulated cells: sensitivity to inhibitor,"[3]; unstimulated cells, BB94",sensitive
same,RHBDL4 cleavage of pro-TGFalpha: sensitivity to inhibitor,"[4]; COS-7 cells, BB94 10 μM",insensitive
same,RHBDL4-triggered TGFalpha release: sensitivity to inhibitor,"[4]; HEK293T cells, TGFalpha with juxtamembrane His8-tag",insensitive
CC(C)C[C@@H](C=O)NC(=O)[C@H](CC(C)C)NC(=O)[C@H](CC(C)C)NC(=O)OCc1ccccc1 [MG132] (Cbz-Leu-Leu-Leu-aldehyde),Effect on pro-TGFalpha forms (proteasomal degradation),[5]; 5 μM,led to unglycosylated TGFalpha
"CCCCCCCCCCCCCC(=O)O[C@@H]1[C@@H](C)[C@@]2(O)[C@@H](C=C(CO)C[C@]3(O)C(=O)C(C)=C[C@@H]23)[C@@H]2C(C)(C)[C@]12OC(C)=O [PMA, phorbol 12-myristate 13-acetate]",BB94-insensitive TGFalpha release activity,[6],induced
same,BB94-sensitive (metalloprotease dependent) trimming of TGFalpha,[6],enhanced
CC(C)C[C@H](CC(=O)NO)C(=O)N[C@H](C(=O)N[C@@H](C)C(=O)NCCN)C(C)(C)C [TAPI-2],Generation and release of the higher molecular weight form of TGFalpha,[2]; inhibitor 20 μM,none of these inhibitors of known proprotein convertases had an effect
CC[C@H](C)[C@H](NC(=O)[C@H]([C@@H](C)CC)N(C)C(C)=O)C(=O)N[C@H](C(=O)N[C@@H](CC(C)C)C(=O)[C@@]1(C)CO1)[C@@H](C)O [epoxomicin],Effect on pro-TGFalpha forms (proteasomal degradation),[5]; 2 μM,led to unglycosylated TGFalpha
CCCCCCCCCC(=O)N[C@@H](CCCN=C(N)N)C(=O)N[C@H](C(=O)N[C@@H](CCCCN)C(=O)N[C@@H](CCCN=C(N)N)C(=O)CCl)C(C)C [furin inhibitor I] (Decanoyl-RVKR-CH2Cl),Generation and release of the higher molecular weight form of TGFalpha,[2]; inhibitor 100 μM,none of these inhibitors of known proprotein convertases had an effect
beta-secretase inhibitor IV,Generation and release of the higher molecular weight form of TGFalpha,[2]; inhibitor 10 μM,none of these inhibitors of known proprotein convertases had an effect
B1,"in vitro cleavage assay (SDS-PAGE, decrease of intact substrate band)",[7],"The substrate was cleaved, as indicated by the decreased amount of intact substrate band"
B2,cleavage,[8],Note that RHBDL4 cleaves Spitz
same,"cleavage of pro-TGFalpha, titration of protease plasmid (Western blot)",[9],cleavage of TGFalpha requires sub-stoichiometric amounts of RHBDL4
B3,"in vitro cleavage assay (SDS-PAGE, decrease of intact substrate band)",[7],"The substrate was cleaved, as indicated by the decreased amount of intact substrate band"
B4,"in vitro cleavage assay (SDS-PAGE, decrease of intact substrate band)",[7],"The substrate was cleaved, as indicated by the decreased amount of intact substrate band"
B5,"secreted 37 kDa product, FLAG6-tagged pro-TGFalpha (Western blot)",[9],overexpression of RHBDL1 caused a minor increase of secreted 37 kDa product
